Experimental data from patent US9517238B2, “Compositions and methods for treating allergic inflammation through inhibition of NTRK1” (CHILDREN'S HOSPITAL MEDICAL CENTER, priority 2014, dated 2016).

Columns and labels:
NTRK1 = target: T1, NTRK1 (Homo sapiens, UniProt P04629); experiment: NGF-mediated induction of EGR genes in TE-7 cells stably expressing NTRK1, with tyrosine kinase inhibitors; assay type: cell-based; conditions: TE-7 epithelial cells, NGF stimulation
T1 construct: expressed in transfected cells
Description: In order to further investigate the functional link between IL-13 and NGF signaling we generated two pools of TE-7 cells stably expressing NTRK1 that allowed us to simultaneously induce IL-13 and NGF/NTRK1 responses.
We further hypothesized that inhibition of NTRK1 kinase activity will prevent induction of EGR genes following NGF stimulation. To test this hypothesis we utilized two tyrosine kinase inhibitors lestaurtinib (CEP-701) and crizotinib that were previously reported as efficient blockers of NTRK1 auto-phosphorylation and downstream signaling.

[1] = system: NTRK1 expression in esophageal biopsies; experiment: RT-PCR analysis of NTRK1 in esophageal biopsies of EoE patients after swallowed steroid treatment; assay type: in vivo, human; conditions: EoE patients who responded to swallowed steroid treatment (FPR, n=13) vs active EoE and controls; FIG. 4A
Experimental: FIG. 4. NTRK1, NGF, and EGR1 expression in human allergic inflammation. In A, RT-PCR analysis of NTRK1 in biopsies was performed in unaffected control patients (Ctrl, n=13), patients with active EoE (EoE, n=12), and EoE patients who responded to swallowed steroid treatment (fluticasone responders [FPR], n=13); ***p<0.001; ns, not significant. In B and C, the graphs show Pearson correlation of NTRK1 expression with IL-13 levels and peak eosinophil counts in EoE biopsies. […] In E, quantification of NTRK1 in control and active EoE biopsies is shown (n=5 each); *p<0.05. Expression level was normalized to the level of GAPDH. In F, RT-PCR analysis of NGF and CCL26 was performed in control and EoE biopsies (n=10 each); ****p<0.0001; ns, not significant. In G, amount of NGF and CCL26 protein was measured by ELISA in control and active EoE biopsies (n=5 each); *p<0.05; ns, not significant. […] In I, EGR1 mRNA was measured by RT-PCR in esophageal biopsies of unaffected control (Ctrl) patients and patients with active EoE (n=10 each). ***p<0.001. […]
In vitro experiments with epithelial cells prompted us to investigate whether NTRK1 is increased in epithelial cells in vivo during allergic responses. First, we assessed expression of NTRK1 mRNA in esophageal biopsies of control and EoE patients. […]

T1 sequence (P04629 33-796): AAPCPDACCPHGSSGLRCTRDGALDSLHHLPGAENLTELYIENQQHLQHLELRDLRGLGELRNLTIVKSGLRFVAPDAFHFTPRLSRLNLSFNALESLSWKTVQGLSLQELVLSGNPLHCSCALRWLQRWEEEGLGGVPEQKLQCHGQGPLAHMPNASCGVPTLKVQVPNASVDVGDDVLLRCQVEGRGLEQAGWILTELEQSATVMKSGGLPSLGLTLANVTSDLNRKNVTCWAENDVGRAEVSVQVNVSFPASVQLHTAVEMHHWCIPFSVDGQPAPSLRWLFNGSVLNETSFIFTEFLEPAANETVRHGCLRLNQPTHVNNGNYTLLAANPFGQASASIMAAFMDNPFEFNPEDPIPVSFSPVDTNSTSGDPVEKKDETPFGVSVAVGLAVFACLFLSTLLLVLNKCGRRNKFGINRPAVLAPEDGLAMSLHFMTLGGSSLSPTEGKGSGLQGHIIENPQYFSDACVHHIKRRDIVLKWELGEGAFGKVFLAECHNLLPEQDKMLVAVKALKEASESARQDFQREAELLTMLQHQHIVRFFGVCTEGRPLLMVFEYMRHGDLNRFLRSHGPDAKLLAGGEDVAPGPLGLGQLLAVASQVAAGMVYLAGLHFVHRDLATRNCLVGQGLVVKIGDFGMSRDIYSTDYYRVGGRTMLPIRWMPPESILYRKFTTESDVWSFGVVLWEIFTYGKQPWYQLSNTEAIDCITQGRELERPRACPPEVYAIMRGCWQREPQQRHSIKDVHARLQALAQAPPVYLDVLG

| NGF-mediated increase in EGR1 mRNA (NTRK1; EGR1 mRNA) | NGF-mediated increase in EGR3 mRNA (NTRK1; EGR3 mRNA) | SMILES | NTRK1 mRNA expression in esophageal biopsies [1] |
| --- | --- | --- | --- |
| dramatically reduced | dramatically reduced | C[C@@H](Oc1cc(-c2cnn(C3CCNCC3)c2)cnc1N)c1c(Cl)ccc(F)c1Cl [crizotinib] |  |
|  |  | CCC(=O)O[C@]1(C(=O)SCF)[C@H](C)C[C@H]2[C@@H]3C[C@H](F)C4=CC(=O)C=C[C@]4(C)[C@@]3(F)[C@@H](O)C[C@@]21C [fluticasone propionate] | normalized levels |
